Measurements taken from US20250017906A1, “COMPOUNDS FOR USE IN TREATING GASTRIC CANCER” (BPGBio, Inc., priority 2021, published 2025).
“Also recorded” adds a separate entry of the source.

Columns and labels:
[1] = test system: cyclin B1 and phosphor histone H3; assay: Level of cyclin B1 and phospho histone H3 in SNU-5 xenograft tumors; assay type: in vivo, nude mice; settings: 75 and 150 mg/kg (FIG. 4)
[2] = Tolerability (body weight, survival) in HS746T xenograft study; assay type: in vivo; settings: HS746T xenograft, 75, 100 and 150 mg/kg oral BID, 15 days
Experimental: Hs 746T cell line is a gastric carcinoma epithelial cell type from stomach that were isolated from the metastatic site of left leg muscle. Hs 746T cell lines were implanted subcutaneously in nude mice. Tumors were allowed to grow. Once the average tumor volume reached the volume of 120 mm3, animals were randomized into four groups of vehicle control, 75 mg/kg, 100 mg/kg, and 150 mg/kg 2-(difluoromethoxy)-N-[[5-(2-methoxyphenyl)-1H-1,2,4-triazol-3-yl]methyl]benzamide with 10 animals per group. Methocel E3 Premium LV with 2% labrasol in Milli-Q water was used for vehicle control. 2-(difluoromethoxy)-N-[[5-(2-methoxyphenyl)-1H-1,2,4-triazol-3-yl]methyl]benzamide was prepared prior to each dosing in 2% labrasol dissolved in Milli-Q water. […] For each individual animal of vehicle group TGI % was calculated based on the tumor growth inhibition of individual tumor at each given day of the study compared to the average of the group for that given day of the study. The P value was calculated for each group that was treated with 2-(difluoromethoxy)-N-[[5-(2-methoxyphenyl)-1H-1,2,4-triazol-3-yl]methyl]benzamide for each given day of the study by comparing the TGI of that day to the TGI of the vehicle group. […] P value was calculated by excel program using two-tailed distribution and two-sample equal variance (homoscedastic). ns P>0.05; * P<0.05; ** P<0.01; *** P<0.001; **** P<0.0001.

SNU5 tumors = assay: Gastric carcinoma xenograft model: SNU-5 tumors in nude mice, tumor growth inhibition; assay type: in vivo; settings: SNU-5 xenograft
Experimental: SNU-5 is derived from ascites of a patient with poorly differentiated carcinoma of the stomach. The patient had previously received chemotherapy including 5-fluorouracil, doxorubicin and mitomycin-C. This cell line is derived from metastatic site, ascites.
SNU-5 cell lines were implanted subcutaneously in nude mice. Tumors were allowed to grow. Once the average tumor volume reached the volume of 122 mm3, animals were randomized into three groups of vehicle control, 75 mg/kg and 150 mg/kg 2-(difluoromethoxy)-N-[[5-(2-methoxyphenyl)-1H-1,2,4-triazol-3-yl]methyl]benzamide with 12 animals per group. Methocel E3 Premium LV in Milli-Q water was used for vehicle control. A solid dispersion of 2-(difluoromethoxy)-N-[[5-(2-methoxyphenyl)-1H-1,2,4-triazol-3-yl]methyl]benzamide was prepared prior to each dosing in Milli-Q water. 2-(difluoromethoxy)-N-[[5-(2-methoxyphenyl)-1H-1,2,4-triazol-3-yl]methyl]benzamide was administered by oral gavage two times a day (BID). In this study there were 12 animals per each group. […] Animals that left the study prior to day 23 were eliminated from all calculations. The percentage of tumor growth inhibition (TGI %) was calculated for each individual tumor. The mean tumor volume of each group over time and the growth of tumor in each individual animal is plotted below. For each individual animal of vehicle group TGI % was calculated based on the tumor growth inhibition of individual tumor at each given day of the study compared to the average of the group for that given day of the study. The P value was calculated for each group that was treated with 2-(difluoromethoxy)-N-[[5-(2-methoxyphenyl)-1H-1,2,4-triazol-3-yl]methyl]benzamide for each given day of the study by comparing the TGI of that day to the TGI of the vehicle group. This P value is different than what is provided in the CRO report which is the P value related to tumor volume not TGI %. P value was calculated by excel program using two-tailed distribution and two-sample equal variance (homoscedastic). ns P>0.05; * P<0.05; ** P<0.01; *** P<0.001; **** P<0.0001.

HS746T tumors = assay: Gastric carcinoma xenograft model: Hs 746T tumors in nude mice, tumor growth inhibition; assay type: in vivo; settings: for % Tumor Growth Inhibition (% TGI) / tumor growth inhibition, mixed effect linear model of the tumor volumes on the last day of study: HS746T xenograft
Experimental: Hs 746T cell line is a gastric carcinoma epithelial cell type from stomach that were isolated from the metastatic site of left leg muscle. Hs 746T cell lines were implanted subcutaneously in nude mice. Tumors were allowed to grow. Once the average tumor volume reached the volume of 120 mm3, animals were randomized into four groups of vehicle control, 75 mg/kg, 100 mg/kg, and 150 mg/kg 2-(difluoromethoxy)-N-[[5-(2-methoxyphenyl)-1H-1,2,4-triazol-3-yl]methyl]benzamide with 10 animals per group. Methocel E3 Premium LV with 2% labrasol in Milli-Q water was used for vehicle control. 2-(difluoromethoxy)-N-[[5-(2-methoxyphenyl)-1H-1,2,4-triazol-3-yl]methyl]benzamide was prepared prior to each dosing in 2% labrasol dissolved in Milli-Q water. 2-(difluoromethoxy)-N-[[5-(2-methoxyphenyl)-1H-1,2,4-triazol-3-yl]methyl]benzamide was administered by oral gavage two times a day (BID). In this study there were 10 animals per each group. […] The mean tumor volume of each group over time and the growth of tumor in each individual animal is plotted below. For each individual animal of vehicle group TGI % was calculated based on the tumor growth inhibition of individual tumor at each given day of the study compared to the average of the group for that given day of the study. The P value was calculated for each group that was treated with 2-(difluoromethoxy)-N-[[5-(2-methoxyphenyl)-1H-1,2,4-triazol-3-yl]methyl]benzamide for each given day of the study by comparing the TGI of that day to the TGI of the vehicle group. This P value is different than what is provided in the CRO report which is the P value related to tumor volume not TGI %. P value was calculated by excel program using two-tailed distribution and two-sample equal variance (homoscedastic). ns P>0.05; * P<0.05; ** P<0.01; *** P<0.001; **** P<0.0001.

[3] = test system: cyclin B1(CCNB1) and phospho histone H3(pHH3); assay: Level of cyclin B1 and phospho histone H3 in HS746T xenograft tumors; assay type: in vivo, nude mice; settings: 75-150 mg/kg (FIG. 2)
UBE2K = target: T1, UBE2K (Homo sapiens, UniProt P61086); settings: poly-ubiquitination assays, FIG. 2 of U.S. Pat. No. 11,091,447; cited from earlier work
T1 sequence (P61086 1-200): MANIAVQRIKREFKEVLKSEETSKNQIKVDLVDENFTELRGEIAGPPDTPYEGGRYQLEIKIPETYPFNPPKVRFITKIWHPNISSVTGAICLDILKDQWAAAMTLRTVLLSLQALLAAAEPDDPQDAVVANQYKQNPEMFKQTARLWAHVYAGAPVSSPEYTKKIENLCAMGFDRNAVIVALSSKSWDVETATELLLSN

[4] = Tolerability (body weight, survival) in SNU-5 xenograft study; assay type: in vivo; settings: oral BID, solid dispersion
Experimental: SNU-5 cell lines were implanted subcutaneously in nude mice. Tumors were allowed to grow. Once the average tumor volume reached the volume of 122 mm3, animals were randomized into three groups of vehicle control, 75 mg/kg and 150 mg/kg 2-(difluoromethoxy)-N-[[5-(2-methoxyphenyl)-1H-1,2,4-triazol-3-yl]methyl]benzamide with 12 animals per group. Methocel E3 Premium LV in Milli-Q water was used for vehicle control. A solid dispersion of 2-(difluoromethoxy)-N-[[5-(2-methoxyphenyl)-1H-1,2,4-triazol-3-yl]methyl]benzamide was prepared prior to each dosing in Milli-Q water. […] The percentage of tumor growth inhibition (TGI %) was calculated for each individual tumor. […] For each individual animal of vehicle group TGI % was calculated based on the tumor growth inhibition of individual tumor at each given day of the study compared to the average of the group for that given day of the study. The P value was calculated for each group that was treated with 2-(difluoromethoxy)-N-[[5-(2-methoxyphenyl)-1H-1,2,4-triazol-3-yl]methyl]benzamide for each given day of the study by comparing the TGI of that day to the TGI of the vehicle group. […] P value was calculated by excel program using two-tailed distribution and two-sample equal variance (homoscedastic). ns P>0.05; * P<0.05; ** P<0.01; *** P<0.001; **** P<0.0001.

SMILES: COc1ccccc1-c1nc(CNC(=O)c2ccccc2OC(F)F)n[nH]1 [2-(difluoromethoxy)-N-[[5-(2-methoxyphenyl)-1H-1,2,4-triazol-3-yl]methyl]benzamide]
- cyclin B1 in tumor tissues [1]: dose dependent increase; also recorded: dose-dependent increase
- phosphor histone H3 in tumor tissues [1]: dose dependent increase; also recorded: dose-dependent increase
- effect on body weight [2]: without any significant effect on body weight
- % Tumor Growth Inhibition (% TGI) (SNU5 tumors; 75 mg/kg oral BID, day 2): 79%
- % Tumor Growth Inhibition (% TGI) (SNU5 tumors; 75 mg/kg oral BID, day 5): 41%
- % Tumor Growth Inhibition (% TGI) (SNU5 tumors; 75 mg/kg oral BID, day 7): 36%
- % Tumor Growth Inhibition (% TGI) (SNU5 tumors; 75 mg/kg oral BID, day 9): 49%
- % Tumor Growth Inhibition (% TGI) (SNU5 tumors; 75 mg/kg oral BID, day 12): 51%
- % Tumor Growth Inhibition (% TGI) (SNU5 tumors; 75 mg/kg oral BID, day 14): 47%
- % Tumor Growth Inhibition (% TGI) (SNU5 tumors; 75 mg/kg oral BID, day 16): 56%
- % Tumor Growth Inhibition (% TGI) (SNU5 tumors; 75 mg/kg oral BID, day 19): 47%
- % Tumor Growth Inhibition (% TGI) (SNU5 tumors; 75 mg/kg oral BID, day 21): 40%
- tumor growth inhibition (SNU5 tumors; 150 mg/kg oral BID (FIG. 3)): 64%
- % Tumor Growth Inhibition (% TGI) (SNU5 tumors; 150 mg/kg oral BID, day 2): 129%
- % Tumor Growth Inhibition (% TGI) (SNU5 tumors; 150 mg/kg oral BID, day 5): 70%
- % Tumor Growth Inhibition (% TGI) (SNU5 tumors; 150 mg/kg oral BID, day 7): 58%
- % Tumor Growth Inhibition (% TGI) (SNU5 tumors; 150 mg/kg oral BID, day 9): 64%
- % Tumor Growth Inhibition (% TGI) (SNU5 tumors; 150 mg/kg oral BID, day 12): 63%
- % Tumor Growth Inhibition (% TGI) (SNU5 tumors; 150 mg/kg oral BID, day 14): 54%
- % Tumor Growth Inhibition (% TGI) (SNU5 tumors; 150 mg/kg oral BID, day 16): 64%
- % Tumor Growth Inhibition (% TGI) (SNU5 tumors; 150 mg/kg oral BID, day 19): 52%
- % Tumor Growth Inhibition (% TGI) (SNU5 tumors; 150 mg/kg oral BID, day 21): 49%
- HS746T tumor growth inhibition (TGI) (HS746T tumors; 150 mg/kg in nude mice (summary, FIG. 1)): more than 70%
- % Tumor Growth Inhibition (% TGI) (HS746T tumors; 75 mg/kg oral BID, day 3): 47.2%
- % Tumor Growth Inhibition (% TGI) (HS746T tumors; 75 mg/kg oral BID, day 5): 45.9%
- % Tumor Growth Inhibition (% TGI) (HS746T tumors; 75 mg/kg oral BID, day 8): 46.3%
- % Tumor Growth Inhibition (% TGI) (HS746T tumors; 75 mg/kg oral BID, day 10): 46.3%
- % Tumor Growth Inhibition (% TGI) (HS746T tumors; 75 mg/kg oral BID, day 12): 36.8%
- % Tumor Growth Inhibition (% TGI) (HS746T tumors; 75 mg/kg oral BID, day 15): 35.7%
- tumor growth inhibition, mixed effect linear model of the tumor volumes on the last day of study (HS746T tumors; 75 mg/kg oral BID): 60.3%
- % Tumor Growth Inhibition (% TGI) (HS746T tumors; 100 mg/kg oral BID, day 3): 65.8%
- % Tumor Growth Inhibition (% TGI) (HS746T tumors; 100 mg/kg oral BID, day 5): 56.2%
- % Tumor Growth Inhibition (% TGI) (HS746T tumors; 100 mg/kg oral BID, day 8): 57.7%
- % Tumor Growth Inhibition (% TGI) (HS746T tumors; 100 mg/kg oral BID, day 10): 59.4%
- % Tumor Growth Inhibition (% TGI) (HS746T tumors; 100 mg/kg oral BID, day 12): 49.3%
- % Tumor Growth Inhibition (% TGI) (HS746T tumors; 100 mg/kg oral BID, day 15): 52.4%
- tumor growth inhibition, mixed effect linear model of the tumor volumes on the last day of study (HS746T tumors; 100 mg/kg oral BID): 71.2%
- % Tumor Growth Inhibition (% TGI) (HS746T tumors; 150 mg/kg oral BID, day 3): 98.3%
- % Tumor Growth Inhibition (% TGI) (HS746T tumors; 150 mg/kg oral BID, day 5): 93.1%
- % Tumor Growth Inhibition (% TGI) (HS746T tumors; 150 mg/kg oral BID, day 8): 89.8%
- % Tumor Growth Inhibition (% TGI) (HS746T tumors; 150 mg/kg oral BID, day 10): 84.2%
- % Tumor Growth Inhibition (% TGI) (HS746T tumors; 150 mg/kg oral BID, day 12): 72.9%
- % Tumor Growth Inhibition (% TGI) (HS746T tumors; 150 mg/kg oral BID, day 15): 74.3%
- tumor growth inhibition, mixed effect linear model of the tumor volumes on the last day of study (HS746T tumors; 150 mg/kg oral BID): 85.3%
- cyclinB1 in tumor tissues [3]: dose-dependent increase
- phosphor histone H3 in tumor tissues [3]: dose-dependent increase
- effect on mono-ubiquitinated UBE2K (UBE2K): stabilize mono-ubiquitinated UBE2K
- effect on body weight [4]: without any significant effect on body weight
